Results published in publication PMC6509195 (mBio, 2019).

Columns and labels:
[1] = molecular target: T1, CsiD homolog from E. coli (Escherichia coli, UniProt P76621); experiment: LC-TOF detection of L-2HG; type: biochemical; conditions: 2-oxoacid co-substrate in place of 2KG; glutarate, FeSO4, HEPES pH 7, 22°C
T1 construct: gene glaH
T1 sequence (P76621 1-325): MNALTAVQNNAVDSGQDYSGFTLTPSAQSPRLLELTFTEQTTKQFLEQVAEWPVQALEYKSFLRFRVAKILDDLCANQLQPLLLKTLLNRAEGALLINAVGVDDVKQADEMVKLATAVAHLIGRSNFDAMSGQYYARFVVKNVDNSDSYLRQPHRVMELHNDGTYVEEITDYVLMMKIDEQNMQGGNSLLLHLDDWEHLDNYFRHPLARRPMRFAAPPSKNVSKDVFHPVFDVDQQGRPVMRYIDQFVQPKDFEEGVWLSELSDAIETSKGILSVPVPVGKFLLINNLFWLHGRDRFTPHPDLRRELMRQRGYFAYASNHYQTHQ

CsiD (PP_2909) [2] = molecular target: T2, CsiD (PP_2909) (Pseudomonas putida, UniProt Q88IU0); experiment: LC-TOF detection of L-2HG; type: biochemical; conditions: 2-oxoacid co-substrate in place of 2KG; glutarate, FeSO4, HEPES pH 7, 22°C
T2 construct: gene glaH
T2 sequence (Q88IU0 1-325): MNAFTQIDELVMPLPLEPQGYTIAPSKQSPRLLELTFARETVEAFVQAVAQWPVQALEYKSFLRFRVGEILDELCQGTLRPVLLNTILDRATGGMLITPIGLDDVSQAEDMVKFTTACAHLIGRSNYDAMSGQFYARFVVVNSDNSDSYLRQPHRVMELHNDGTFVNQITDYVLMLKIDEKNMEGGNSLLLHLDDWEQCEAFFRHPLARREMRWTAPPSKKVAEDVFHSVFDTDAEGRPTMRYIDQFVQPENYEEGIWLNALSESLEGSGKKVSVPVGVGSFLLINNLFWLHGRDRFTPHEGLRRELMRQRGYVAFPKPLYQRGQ

PP_4108 = molecular target: T3, PP_4108 (Pseudomonas putida, UniProt Q88FI7); experiment: colorimetric glutamate assay of transamination; type: biochemical; conditions: 2KG as amino acceptor, PLP, 50 mM HEPES pH 7.5, 30°C, 16 h
T3 sequence (Q88FI7 1-416): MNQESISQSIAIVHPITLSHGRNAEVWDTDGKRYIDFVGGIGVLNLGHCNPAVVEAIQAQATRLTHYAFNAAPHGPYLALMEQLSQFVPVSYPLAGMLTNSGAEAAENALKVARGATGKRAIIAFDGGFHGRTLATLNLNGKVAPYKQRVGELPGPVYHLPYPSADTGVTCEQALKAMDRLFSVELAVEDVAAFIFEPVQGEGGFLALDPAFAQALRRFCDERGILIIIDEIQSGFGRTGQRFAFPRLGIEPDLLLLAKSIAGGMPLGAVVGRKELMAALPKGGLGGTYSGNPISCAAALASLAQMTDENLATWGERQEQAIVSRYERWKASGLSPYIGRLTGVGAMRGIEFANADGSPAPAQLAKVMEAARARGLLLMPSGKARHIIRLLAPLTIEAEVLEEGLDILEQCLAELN

CsiD (PP_2909) [3] = molecular target: T2, CsiD (PP_2909); experiment: LC-TOF / HPLC product analysis; type: biochemical; conditions: 2KG co-substrate, 25 μM FeSO4, ascorbate, DTT, 50 mM HEPES pH 7, 22°C, 3 h
[4] = molecular target: T1, CsiD homolog from E. coli; experiment: LC-TOF product analysis; type: biochemical; conditions: 2KG co-substrate, FeSO4, HEPES pH 7, 22°C
purified protein = substrate: O=C(O)CCCC(=O)C(=O)O; experiment: purified protein; type: biochemical, Pseudomonas putida; conditions: 100 mM Tris-HCl pH 7, 10 mM MgCl2, 50 μM FeCl2, Fe(II)-dependent

With `O=C(O)CCCC(=O)C(=O)O` [2-oxoadipate] the “LC-TOF detection of L-2HG” value [1] was “all three CsiD homologs could utilize both 2OA and 2KG, but not oxaloacetate” and the “LC-TOF detection of L-2HG” value (CsiD (PP_2909) [2]) was “all three CsiD homologs could utilize both 2OA and 2KG, but not oxaloacetate”.

For `N[C@@H](CCCC(=O)O)C(=O)O` [L-2-aminoadipate], the relative activity (PP_4108) was “The enzyme was most active on L-2AA”.

`O=C(O)CCCC(=O)O` [glutarate] was tested, and the “LC-TOF / HPLC product analysis” value (CsiD (PP_2909) [3]) was “purified csiD and confirmed that it hydroxylated glutarate in a 2KG-dependent manner” and the LC-TOF product analysis [4] was “found that only glutarate served as a hydroxylation substrate”.

B1: PP_5260 (Pseudomonas putida KT2440) (protein)
chain: MPANDFVSPDSIRAQFSAAMSLMYKQEVPLYGTLLELVSEINQQVMAQQPEVAEALRWTGEIERLDQERHGAIRVGTAEELATIARLFAVMGMQPVGYYDLSSAGVPVHSTAFRAVHEQSLHVSPFRVFTSLLRLELIDNPQLRELAQSILAKRQIFTSRALELIAQCEREGGLDAADAETFVQEALHTFRWHQDATVTAEQYQQLHDQHRLIADVVAFKGPHINHLTPRTLDIDAIQLGMPAKGIPPKAVVEGPPTRRHPILLRQTSFKALQETVAFRDQQGREGSHTARFGEIEQRGAALTPKGRQLYDKLLDATRVALGGAPAEANAERYMALLQANFAEFPDDLAQMREQGLAYFRYFATEKGLAARDQEGRPTTLQGLIDAGHVHFEALVYEDFLPVSAAGIFQSNLGDDAQAEYGSNANREAFEAALGLQVQDELALYAQSERRSLQACAQALNLGSM
For B1, the Km (purified protein) was 0.06 (± 0.03) mM.
